# Results from patent publication US5756504A, “Tocolytic oxytocin receptor antagonists” (priority 1996, dated 1998).
# Like-named read-outs stand apart in the source and are kept apart here.
# Experiments:
# [1] = compared with ritodrine; cited from earlier work
# [2] = biological target: T1, oxytocin receptor ([^3 H]OT binding, uterine tissue) (Rattus norvegicus, UniProt P70536); test: [3H]oxytocin radioligand binding competition assay, rat uterus; design: species or system rat (Sprague-Dawley)
# T1 construct: tissue Taconic Farms, Germantown, N.Y. (animals); host or cells: uterus of nonpregnant adult Sprague-Dawley rats pretreated with diethylstilbestrol propionate, crude membranes
# T1 sequence (P70536 1-388): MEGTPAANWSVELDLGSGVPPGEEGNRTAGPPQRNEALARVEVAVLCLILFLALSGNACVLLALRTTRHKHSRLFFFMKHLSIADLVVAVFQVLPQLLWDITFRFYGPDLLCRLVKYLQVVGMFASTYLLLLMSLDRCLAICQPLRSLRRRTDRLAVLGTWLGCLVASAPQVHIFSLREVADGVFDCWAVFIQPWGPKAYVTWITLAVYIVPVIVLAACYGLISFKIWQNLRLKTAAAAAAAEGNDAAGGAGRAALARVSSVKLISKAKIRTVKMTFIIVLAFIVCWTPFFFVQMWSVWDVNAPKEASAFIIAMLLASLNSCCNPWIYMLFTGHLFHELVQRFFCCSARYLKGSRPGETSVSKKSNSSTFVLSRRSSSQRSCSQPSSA
# Procedure: RADIOLIGAND BINDING ASSAYS
# Ther., 256(1): 304-308 (1991)]. Uterine tissue was taken from nonpregnant adult Sprague-Dawley rats (Taconic Farms, Germantown, N.Y.) pretreated (18-24 h) with diethylstilbestrol propionate (DES; 300 μg/kg, i.p.). Uterine tissue (full thickness) was also taken with informed consent from nonlabor pregnant women undergoing cesarean section at 38 to 39 weeks gestation (Oregon Health Sciences Center, Portland, Oreg.). Liver and kidney medulla samples were taken from male rats and from human surgical and early postmortem donors (National Disease Research Interchange, Philadelphia Pa.; Analytical Biological Services, Wilmington, Del.).
# Nonspecific binding was determined using 1 μM unlabeled OT or AVP in their respective assays. The binding reactions were initiated by the addition of tissue preparation and terminated by filtration using a Skatron cell harvester (model 7019, Skatron, Inc., Sterling, Va.). […] The final protein concentration for the various tissues in each assay ranged from 150 to 300 μg/ml [Lowry, P. H.; Rosebrough, N. J.; Farr, A. L.; Randall, R. J.; J. Biol. Chem., 193:265-275 (1951)].
# Data is either reported as a given percentage of inhibition at a specified concentration,or if an IC50 was calculated, as a nanomolar concentration.
# [3] = cited from earlier work
# uterus = test: uterine contraction in situ in nonpregnant rat; format: in vivo, rat (Sprague-Dawley); details: i.v., DES-pretreated anesthetized rats
# Procedure: 2. OT antagonist activity in the nonpregnant rat
# The procedure for measuring isometric contraction of the uterus in situ was adapted from that of Chan et al. [1974] as previously described [Pettibone et al., 1989]. Sprague-Dawley rats (200-300 g, Taconic Farms, Germantown, N.Y.) pretreated with DES (0.25 mg/kg, i.p.; 18 h) were anesthetized with urethane (1.75 g/kg, i.p.), a tracheal cannula was inserted, and a femoral vein was cannulated. The left uterine horn was exposed, and the anterior part of the horn was secured with surgical silk to an anchor post. A second ligature about 3 cm posterior to the first tie was connected to a force transducer and maintained at a tension of 1 g. Signals from the transducer were amplified and recorded. The contractile response of the uterus to OT was quantified by computerized measurement of the area under the contraction-time curve for a 10-min period immediately after the injection of OT. The following protocol was adopted for most experiments. […] The contractile response obtained from the third injection was set as 100%. Areas determined after each injection was expressed as a percentage of the area obtained for the third injection. […] The dose of test compound required to reduce the response to OT by 50% (AD50) was calculated from the contractile areas obtained after the fourth injection of OT (i.e., 5 min postinfusion of test compound). […]
IC50 [2] [nM],Compound,further results
,CCO [Ethanol],effectiveness in preventing premature labor [1]: as effective as ritodrine in preventing premature labor; reduction in incidence of fetal respiratory distress [1]: does not produce a corresponding reduction in the incidence of fetal respiratory distress
400,"COc1ccc(CC(=O)N2CCC3(C=Cc4ccccc43)CC2)c(OC)c1 [Example 1, 1'-(2,4-Dimethoxyphenylacetyl)-spiro[1H]indene-1,4'-piperidine]",
120,"O=C(Nc1ccc(CC(=O)N2CCC3(C=Cc4ccccc43)CC2c2ccccc2)cc1)c1ccc2[nH]cnc2c1 (stereo not drawn) [Example 2, 1'-(4-(Benzimidazole-5-carboxylamino)phenylacetyl)-2'-phenylspiro[1H]indene-1,4'-piperidine]",
1600,"O=C(Nc1ccc(CC(=O)N2CCC3(C=Cc4ccccc43)CC2)cc1)c1ccc2cc[nH]c2c1 [Example 4, 1'-(4-(Indole-6-carboxylamino)phenylacetyl)spiro[1H]indene-1,4'-piperidine]",
540,"COc1ccc(CC(=O)N2CCN(c3ccccc3C)CC2)c(OC)c1 [Example 6, 1-(2,4-Dimethoxyphenylacetyl)-4-(2-methylphenyl)piperazine]",
80,"COc1ccc(CC(=O)N2CCN(c3ccccc3C)CC2C(N)=O)c(OC)c1 (stereo not drawn) [Example 7, 1-(2,4-Dimethoxyphenylacetyl)-4-(2-methylphenyl)piperazine-2-carboxamide]",
30,"Cc1ccccc1N1CCN(C(=O)Cc2ccc(NC(=O)c3ccc4[nH]cnc4c3)cc2)C(C(N)=O)C1 (stereo not drawn) [Example 8, 1-(4-(Benzimidazol-5-carboxylamino)phenylacetyl)-4-(2-methylphenyl)piperazine-2-carboxamide]",
34,"COc1cc(OC2CCN(C(C)=O)CC2)ccc1CC(=O)N1CCN(c2ccccc2C)CC1C(N)=O (stereo not drawn) [Example 9, 1-(2-Methoxy-4-(1-acetyl-4-piperidyloxy)phenylacetyl)-4-(2-methylphenyl)piperazine-2-carboxamide]",
21,"CCN(CC)CCS(=O)(=O)N1CCC(Oc2ccc(CC(=O)N3CCN(c4ccccc4C)CC3C(N)=O)c(OC)c2)CC1 (stereo not drawn) [Example 11, 1-(2-Methoxy-4-(1-(2-(N,N-Diethylamino)ethylsulfonyl)-4-piperidyloxy)phenylacetyl)-4-(2-methylphenyl)piperazine-2-carboxamide]",
20,"COc1cc(OC2CCN(S(=O)(=O)CCNC3CC3)CC2)ccc1CC(=O)N1CCN(c2ccccc2C)CC1C(N)=O (stereo not drawn) [Example 12, 1-(2-Methoxy-4-(1-(2-(N-cyclopropylamino)-ethylsulfonyl)-4-piperidyloxy)phenylacetyl)-4-(2-methylphenyl)piperazine-2-carboxamide]",
,"COc1cc(OC2CCN(c3c(O)c(=O)c3=O)CC2)ccc1CC(=O)N1CCN(c2ccccc2C)CC1C(N)=O (stereo not drawn) [Example 14, 1-(2-Methoxy-4-(1-(3-hydroxy-3-cyclobutene-1,2-dion-4-y)-4-piperidyloxy)phenylacetyl)-4-(2-methylphenyl)piperazine-2-carboxamide]","IC50 ([2]; read-out: Result For [^3 H]OT (IC50), rat uterus membranes, 1 nM [^3 H]OT): 24 nM"
28,"COc1cc(OC2CCN(Cc3cccnc3)CC2)ccc1CC(=O)N1CCN(c2ccccc2C)CC1C(N)=O (stereo not drawn) [Example 15, 1-(2-Methoxy-4-(-1-((pyrid-3-yl)methyl)-4-piperidyloxy)phenylacetyl)-4-(2-methylphenyl) piperazine-2-carboxamide]",
,O=S(=O)([O-])[O-].[Mg+2] [Magnesium sulfate],"toxicity above therapeutic plasma range ([3]; plasma concentrations above 4 to 8 mg/dL): can cause inhibition of cardiac conduction and neuromuscular transmission, respiratory depression and cardiac arrest"
,"CC[C@H](C)[C@@H]1NC(=O)[C@H](Cc2ccc(O)cc2)NC(=O)[C@@H](N)CSSC[C@@H](C(=O)N2CCC[C@H]2C(=O)N[C@@H](CC(C)C)C(=O)NCC(N)=O)NC(=O)[C@H](CC(N)=O)NC(=O)[C@H](CCC(N)=O)NC1=O [OT, oxytocin]",ED50 dose of OT (uterine contraction) (uterus): ~1 µg/kg
,CC(NCCc1ccc(O)cc1)C(O)c1ccc(O)cc1 (stereo not drawn) [Ritodrine],"side effects ([3]; tocolytic use, in the mother): causes a number of cardiovascular and metabolic side effects in the mother, including tachycardia, increased renin secretion, hyperglycemia (and reactive hypoglycemia in the infant)"
,CC(C)(C)NCC(O)c1ccc(O)c(CO)c1 (stereo not drawn) [albuterol],side effects ([3]; in vivo): side effects similar to those of ritodrine
,CC(C)(C)NCC(O)c1cc(O)cc(O)c1 (stereo not drawn) [terbutaline],"side effects ([3]; tocolytic use, in the mother): side effects similar to those of ritodrine"
